Experimental data taken from US12391670B2, “Functionalized aminotriazines” (LEADXPRO AG, priority 2018, dated 2025).
Read-outs that look alike come from different tables or passages of the source.

Assays:
[1] = target: human A2A receptor (Homo sapiens (Human), UniProt P29274); assay: Radioligand binding competition assay, [3H]-NECA, membranes from HEK293 cells transfected with human A2A receptor; conditions: for Human A2A Receptor pKi / IC50: radioligand binding
Description: (§1) For all four adenosine receptors (A1, A2A, A2B and A3) filtration binding assay was performed. Radioligand binding competition assay was done in duplicates in the wells of a 96-well plate (Master Block, Greiner, 786201) containing binding buffer, receptor membrane extracts, a fixed concentration of tracer and test compound at increasing concentrations. In order to eliminate effect of buffer components, binding buffer was the same for all four receptors and contained: 50 mM Tris-HCl pH 7.4, 5 mM MgCl2, 1 mM EDTA, 150 mM NaCl, 0.1% Na-azide, and 5 U/ml adenosine-deaminase. Nonspecific binding was determined by co-incubation with 200-fold excess of cold competitor. In all radioligand binding experiments, the samples were incubated in a final volume of 0.1 ml for 60 minutes at 25° C. and then filtered over Unifilter plates (Perkin Elmer) pre-treated for 2 hours to limit tracer non-specific binding. Filters were washed five times with 0.5 ml of ice-cold washing buffer (50 mM Tris-HCl pH 7.4, 5 mM MgCl2, 1 mM EDTA) and 50 μl of Microscint 20 (Perkin Elmer) were added to each filter. The plates are incubated 15 min at room temperature on an orbital shaker and then counted with a TopCount™ for 1 min/well.
For A2A receptor the assay was performed with [^3H]-NECA and membranes from HEK293 cells transfected with human A2A receptor (Euroscreen FAST-002B).

[2] = target: T1, human A2B receptor (Homo sapiens (Human), UniProt P29275); assay: Radioligand binding competition assay, [3H]-DPCPX, membranes from HEK293 cells transfected with human A2B receptor
T1 sequence (P29275 whole entry): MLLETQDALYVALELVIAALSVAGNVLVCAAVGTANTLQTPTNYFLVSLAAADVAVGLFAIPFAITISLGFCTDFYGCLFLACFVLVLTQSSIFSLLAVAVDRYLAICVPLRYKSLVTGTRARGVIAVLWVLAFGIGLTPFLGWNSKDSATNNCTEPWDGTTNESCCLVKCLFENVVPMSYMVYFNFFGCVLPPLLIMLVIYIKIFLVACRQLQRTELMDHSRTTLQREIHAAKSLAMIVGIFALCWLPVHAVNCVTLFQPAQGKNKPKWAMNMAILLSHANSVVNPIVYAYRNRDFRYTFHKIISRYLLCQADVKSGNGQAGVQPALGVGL
Description: as §1
For A2B, the assay was carried with [^3H]-DPCPX and membranes prepared from HEK293 cells transfected with human A2B receptor (Euroscreen FAST-003B).

[3] = target: A2B receptors endogenously expressed in HEK293 cells (Homo sapiens (Human), UniProt P29275); assay: cAMP assay (a), HEK293 cells with A2B receptors endogenously expressed; type: cell-based; conditions: stimulated with 5 μM NECA
A2B receptors endogenously expressed in HEK293 cells, sequence (P29275 whole entry): as above
Description: (§2) Two assays have been employed, one using HEK293 with A2B receptors endogenously expressed (named cAMP assay (a) in the following) and a second one using HEK293 cells impressing recombinant human A2B receptors (named cAMP assay (b) in the following)
Real-time cAMP-assays in live cells were performed in HEK293 cells stably expressing the EPAC-sensor (I. Vedel, et al., 2015, J. Biomol. Screen. 20, 849-857).
In order to test for cAMP inhibition by preferred compounds of formula I and antagonists, respectively, from this invention, endogenous A2A and A2B expression in above cell lines was exploited. To run the assay, cells were incubated in 80 μl assay buffer for 15 minutes at room temperature. The assay buffer was composed of Hanks Balanced Salt Solution (Gibco) with 20 mM HEPES, pH 7.4 and […] adenosine-deaminase. All cAMP assays were run at room temperature using a PHERAstar FSX plate reader. The FRET donor (mCerulean) was excited at 430 nm. Fluorescence emission was measured at 480 nm and 530 nm for 65 minutes (cycle time 1.45 min). Prior to stimulation fluorescence was measured for 10 min (baseline). Subsequently cells were stimulated with 5 μM NECA (5′-(N-Ethylcarboxamido)adenosine; Tocris, Cat.-No:35920-39-9). Sharply 10.15 min after stimulation the compounds were added at increasing concentrations (between 0 and 200 μM) and fluorescence was recorded for 40 min. Each compound concentration was measured in duplicates.

[4] = target: human thermostabilised A2B receptor; assay: Wave Guided Interferometry (WGI); type: binding; conditions: 1:1 interaction model
Description: Biophysical Assays: A2B and A2A receptors used for biophysical measurements were produced using baculovirus mediated expression in insect cells. Expression constructs for both receptors contained point mutations that increased receptor thermal stability. Thermostabilised A2B and A2A receptors were solubilized using mild detergents (DDM and DM, respectively) and purified by standard purification methods. A2B receptor was purified in the buffer containing: 40 mM Tris-HCl pH 7.4, 200 mM NaCl, 0.05% DDM, and 0.005% CHS. A2A receptor was purified in the buffer containing: 40 mM Tris-HCl pH 7.4, 200 mM NaCl, 0.15% DM, and 0.002% CHS.
WGI experiments with A2B receptor were performed using the Wave delta instrument (Creoptix AG), a label free surface biosensor. Purified A2B protein was immobilized on 4PCP-N chips (Creoptix, quasi planar NTA functionalized polycarboxylate surface) at typical levels between […]. Running buffer was 25 mM Tris-HCl pH 7.5, 350 mM NaCl, 0.1% DDM, and 2% DMSO. The procedure started with 40 start-up cycles in order to equilibrate and stabilize the surface. Once start-up cycles were performed, different concentrations of compounds (diluted in running buffer, and adjusted depending on the kinetic characteristics) were injected in a multi cycle kinetic mode with typical association time of 120 s and dissociation time of 240 s. A DMSO calibration (typically 5 concentrations between 1 and 3% DMSO) was performed for every experiment in order to calibrate DMSO levels as well as to estimate the missing volume taken by the protein on the chip. Data were evaluated with Creoptix Wave software (Creoptix AG). All final signals are double referenced with injections of same compound concentrations on a reference channel and with buffer injections on the active channel (where protein is immobilized) and fitted with a 1:1 interaction model in order to obtain KD values.

[5] = target: human A1 receptor (Homo sapiens (Human), UniProt P30542); assay: Radioligand binding competition assay, [3H]-DPCPX, membranes from CHO-K1 cells transfected with human A1 receptor
human A1 receptor, sequence (P30542 whole entry): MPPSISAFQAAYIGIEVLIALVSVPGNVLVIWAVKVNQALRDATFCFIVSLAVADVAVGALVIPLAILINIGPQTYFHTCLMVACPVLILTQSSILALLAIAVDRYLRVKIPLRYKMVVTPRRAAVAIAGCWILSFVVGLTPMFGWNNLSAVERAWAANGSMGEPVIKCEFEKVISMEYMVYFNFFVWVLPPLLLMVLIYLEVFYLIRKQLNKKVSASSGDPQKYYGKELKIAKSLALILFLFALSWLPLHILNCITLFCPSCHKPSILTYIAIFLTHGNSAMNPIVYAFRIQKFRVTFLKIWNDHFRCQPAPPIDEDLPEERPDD
Description: as §1
For A1 receptor the assay was performed with [^3H]-DPCPX and membranes from CHO-K1 cells transfected with human A1 receptor (Euroscreen FAST-00B).

[6] = target: T1, human A2B receptor; assay: cAMP assay (b), HEK293 cells expressing recombinant human A2B receptor; type: cell-based; conditions: reference agonist at EC80, read-out: cAMP pIC50 (converted)
Description: as §2
Dose response curves were performed in parallel with the reference compounds. 12 μl of cells were mixed with 6 μl of the test compound at increasing concentrations and then incubated 10 min. Thereafter 6 μl of the reference agonist was added at a final concentration corresponding to the historical EC80. The plates were then incubated for 30 min at room temperature. After addition of the lysis buffer and 1 hour incubation, cAMP concentrations were estimated, according to the manufacturer specification, with the HTRF kit.

[7] = target: human A3 receptor (Homo sapiens (Human), UniProt P0DMS8); assay: Radioligand binding competition assay, [125I]-MECA, membranes from CHO-K1 cells transfected with human A3 receptor
human A3 receptor, sequence (P0DMS8 whole entry): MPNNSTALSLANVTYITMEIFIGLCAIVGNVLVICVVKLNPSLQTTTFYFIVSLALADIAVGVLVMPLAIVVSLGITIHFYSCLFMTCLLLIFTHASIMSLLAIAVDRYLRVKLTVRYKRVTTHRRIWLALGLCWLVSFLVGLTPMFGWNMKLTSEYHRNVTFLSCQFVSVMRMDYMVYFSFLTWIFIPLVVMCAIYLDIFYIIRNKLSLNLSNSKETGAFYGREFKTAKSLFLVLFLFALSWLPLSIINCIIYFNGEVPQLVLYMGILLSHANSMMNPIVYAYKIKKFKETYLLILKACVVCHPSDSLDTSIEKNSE
Description: as §1
For A3, the assay was carried out with [^125I]-MECA and membranes from CHO-K1 cells transfected with human A3 receptor (Euroscreen FAST-004B).

[8] = read-out: cAMP pIC50 (converted)

human A2A receptor, sequence (P29274 whole entry): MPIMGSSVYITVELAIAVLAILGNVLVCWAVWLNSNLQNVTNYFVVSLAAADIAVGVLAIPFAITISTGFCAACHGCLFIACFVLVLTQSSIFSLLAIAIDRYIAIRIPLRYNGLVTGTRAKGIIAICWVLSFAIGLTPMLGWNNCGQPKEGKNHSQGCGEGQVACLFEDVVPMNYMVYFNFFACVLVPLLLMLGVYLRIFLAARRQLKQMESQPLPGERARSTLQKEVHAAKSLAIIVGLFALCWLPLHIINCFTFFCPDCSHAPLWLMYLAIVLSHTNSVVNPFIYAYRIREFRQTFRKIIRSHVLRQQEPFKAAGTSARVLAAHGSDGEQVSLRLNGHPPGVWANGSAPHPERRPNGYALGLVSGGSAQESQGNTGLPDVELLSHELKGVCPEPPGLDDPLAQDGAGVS

Compound	Human A2A Receptor pKi [1]	IC50 [1] [nM]	Human A2B Receptor pKi [2]	IC50 [2] [nM]	IC50 [3] [nM]	IC50 [3, 8] [nM]	Kd [4] [nM]	Human A1 Receptor pKi [5]	IC50 [5] [nM]	IC50 [6] [nM]	Human A3 Receptor pKi [7]	IC50 [7] [nM]	inhibition at 50 µM [1] [%]
Fc1cnccc1-c1nnc(Nc2cccnc2)nc1-c1cccnc1 [Example 1, 6-(3-fluoropyridin-4-yl)-N,5-di(pyridin-3-yl)-1,2,4-triazin-3-amine]	4.73	18500	6.55	320	400	398	500	5.02	19000	–	–	–	–
Fc1ccccc1-c1nc(Nc2cccnc2)nnc1-c1ccnc(C(F)(F)F)c1 [Example 8, 5-(2-fluorophenyl)-N-(pyridin-3-yl)-6-(2-(trifluoromethyl)pyridin-4-yl)-1,2,4-triazin-3-amine]	–	–	–	–	–	–	130	–	–	–	–	–	–
Cc1n[nH]c(Nc2nnc(-c3ccncc3F)c(-c3ccccc3F)n2)n1 [Example 15, 5-(2-fluorophenyl)-6-(3-fluoropyridin-4-yl)-N-(3-methyl-1H-1,2,4-triazol-5-yl)-1,2,4-triazin-3-amine]	4.4	39400	6.82	170	–	–	120	6.23	1180	501	4.48	43500	–
Fc1cnccc1-c1nnc(Nc2nc(Cl)cs2)nc1-c1cccnc1 [Example 4, 4-chloro-N-(6-(3-fluoropyridin-4-yl)-5-(pyridin-3-yl)-1,2,4-triazin-3-yl)thiazol-2-amine]	5.48	3280	6.5	360	–	–	1000	–	–	–	–	–	–
Fc1cccc(Nc2nnc(-c3ccncc3F)c(-c3cccnc3)n2)c1 [Example 2, N-(3-fluorophenyl)-6-(3-fluoropyridin-4-yl)-5-(pyridin-3-yl)-1,2,4-triazin-3-amine]	4.9	12700	6.99	120	630	631	1000	5.43	7440	–	–	–	–
Cc1cc(Nc2nnc(-c3ccncc3F)c(-c3ccccc3F)n2)[nH]n1 [Example 14, 5-(2-fluorophenyl)-6-(3-fluoropyridin-4-yl)-N-(3-methyl-1H-pyrazol-5-yl)-1,2,4-triazin-3-amine]	<4.70	–	6.93	460	–	–	240	5.96	2200	–	4.68	27100	54

More lines, now with the values ahead:

Human A2A Receptor pKi [1]	IC50 [1] [nM]	Human A2B Receptor pKi [2]	IC50 [2] [nM]	IC50 [3] [nM]	IC50 [3, 8] [nM]	Kd [4] [nM]	Human A1 Receptor pKi [5]	IC50 [5] [nM]	IC50 [6] [nM]	Human A3 Receptor pKi [7]	IC50 [7] [nM]	inhibition at 50 µM [1] [%]	Compound
<4.70	–	6.84	160	–	–	100	5.73	3790	–	5.14	9520	48	CNC(=O)Nc1nnc(-c2ccncc2F)c(-c2ccccc2F)n1 [Example 16, 1-(5-(2-fluorophenyl)-6-(3-fluoropyridin-4-yl)-1,2,4-triazin-3-yl)-3-methylurea]
–	–	–	–	–	–	470	–	–	–	–	–	–	Cc1nsc(Nc2nnc(-c3ccnc(C(F)(F)F)c3)c(-c3ccccc3F)n2)n1 [Example 11, N-(5-(2-fluorophenyl)-6-(2-(trifluoromethyl)pyridin-4-yl)-1,2,4-triazin-3-yl)-3-methyl-1,2,4-thiadiazol-5-amine]
5.66	–	7.76	–	–	–	–	6.19	–	41.7	6.52	–	–	OCc1ncc(Nc2nnc(-c3ccncc3F)c(-c3ccccc3F)n2)cn1 [Example 39, (5-{[5-(2-fluorophenyl)-6-(3-fluoropyridin-4-yl)-1,2,4-triazin-3-yl]amino}pyrimidin-2-yl)methanol]
